For one data set, the system named is S. pneumoniae. The experiment in a line: Antibiotic susceptibility (MIC, Sensititre Trays) with rBPI21 poloxamer formulations. Type of data set: cell-based. The conditions noted are these: for MIC: Streptococcus pneumoniae, read-out: Minimum Inhibitory Concentration. Here is the method: The effect of therapeutic compositions of rBPI21 formulated with poloxamer, with or without EDTA, was evaluated on the antibiotic susceptibility of the multiple drug resistant A. baumannii, S. pneumoniae, E. faecium and P. aeruginosa organisms of Example 5. Therapeutic compositions were prepared containing 2 mg/mL rBPI21, (5 mM sodium citrate, 150 mM NaCl) with a 0.2% (w/v) concentration of PLURONIC F68, P103, P104, P105 or P123. The effect on the antibiotic susceptibility of the organisms was determined in Mueller-Hinton Broth plus Cations (CSMHB, Remel), or 40% pooled human serum in CSMHB (Sigma, St. Louis, Mo.), as follows.
Isolated colonies of the organism from overnight cultures were suspended in Microscan® Inoculum Water to a concentration equivalent to a 0.5 McFarland Standard (approximately 1×10^8 CFU/ml), determined using a Microscan® turbidimeter. Aliquots were transferred to either CSMHB or 40% pooled human serum in CSMHB. Each tube contained either a final concentration of 16 μg/mL rBPI21 or an equivalent volume of control buffer. Minimal inhibitory concentrations (MIC) for each antibiotic tested, i.e. the lowest concentration of antibiotic which inhibits visible growth, were determined using gram-negative (MB and MC) and gram-positive (MA) Sensititre Trays (Radiometer America, Westlake, Ohio), which allow for the rapid and simultaneous survey of a broad spectrum of standard antibiotics. Any other antimicrobial panel systems known in the art, such as the Microscan® (Dade Microscan, Sacramento, Calif.), Pasco (DIFCO, Detroit, Mich.) and Alamar (Alamar, Sacramento, Calif.) systems, may alternatively be used to assay for antibiotic susceptibility.
Tables 12-15 below display a summary of the results of the antibiotic screening panels, reported for each strain tested as the MIC of the tested antibiotics in the presence of the indicated rBPI21 therapeutic composition. The antibiotic susceptibility standards (interpretation of an MIC as clinically resistant (R), intermediate (I) or susceptible (S) according to NCCLS standards) applicable to the organism tested appear in superscript next to the MIC.

In another data set the test system is gram-negative bacteria. Particulars: broad range of gram-negative bacteria; Elsbach and Weiss (1992); cited from earlier work.
The test system of data set [1] is Candida albicans and Candida parapsilosis. The conditions noted are these: BPI at 10^−6 M; pH 7.0 or 5.5; cited from earlier work.
Data set [2] relates to gram-positive organisms (Staphylococcus aureus, Staphylococcus epideimidis, Streptococcus faecalis, Bacillus subtilis, Micrococcus Iysodeikticus, Listeria …). Particulars: BPI at 10^−6 M or 160 μg/ml; pH of either 7.0 or 5.5; cited from earlier work.
In data set [3] the test system is human, rabbit and sheep red blood cells and several human tumor cell lines. Particulars: BPI at 10^−6 M; cited from earlier work.
Where [4] appears, read: CSMHB, 16 μg/mL rBPI21 with F68.
Where [5] appears, read: CSMHB, 16 μg/mL rBPI21 with P103.
Where [6] appears, read: CSMHB, 16 μg/mL rBPI21 with P104.
[7] abbreviates: CSMHB, 16 μg/mL rBPI21 with P105.
Where [8] appears, read: CSMHB, 16 μg/mL rBPI21 with P123.
Where [9] appears, read: Serum, 16 μg/mL rBPI21 with F68.
Setting [10] is: Serum, 16 μg/mL rBPI21 with P103.
Setting [11] is: Serum, 16 μg/mL rBPI21 with P104.
Setting [12] is: Serum, 16 μg/mL rBPI21 with P105.
[13] abbreviates: Serum, 16 μg/mL rBPI21 with P123.

In brackets after ≈: the same amount, converted by molar mass. Like-named read-outs stand apart in the source and are kept apart here.

Regarding `Cc1onc(-c2ccccc2)c1C(=O)N[C@@H]1C(=O)N2[C@@H]1SC(C)(C)[C@@H]2C(=O)O` [Oxacillin], the “susceptibility interpretation of MIC (superscript)” value with S. pneumoniae (setting [4]) was “R”; in the data set on S. pneumoniae (setting [5]), “S”; in the data set on S. pneumoniae (setting [6]) it was “S”; with S. pneumoniae (setting [7]), “S”; in the data set on S. pneumoniae (setting [8]) it was “S”; in the data set with S. pneumoniae (CSMHB, Control (no BPI)) it was “R”. In addition, the “susceptibility interpretation of MIC (superscript)” value is reported as “R” with S. pneumoniae (setting [9]); “R” in the data set on S. pneumoniae (setting [10]); “R” in the data set with S. pneumoniae (setting [11]); “R” with S. pneumoniae (setting [12]); “R” in the data set with S. pneumoniae (setting [13]); “R” in the data set on S. pneumoniae (Serum, Control (no BPI)). Further, the MIC is 32 µg/mL (≈ 79.7 µM) in the data set on S. pneumoniae (setting [4]); < 0.25 µg/mL in the data set with S. pneumoniae (setting [5]); 0.5 µg/mL (≈ 1.25 µM) in the data set on S. pneumoniae (setting [6]); 1 µg/mL (≈ 2.49 µM) in the data set with S. pneumoniae (setting [7]); 0.5 µg/mL (≈ 1.25 µM) in the data set on S. pneumoniae (setting [8]); 32 µg/mL (≈ 79.7 µM) with S. pneumoniae (CSMHB, Control (no BPI)). Besides, the MIC is > 32 µg/mL in the data set on S. pneumoniae (setting [9]); 32 µg/mL (≈ 79.7 µM) in the data set with S. pneumoniae (setting [10]); 32 µg/mL (≈ 79.7 µM) in the data set with S. pneumoniae (setting [11]); 32 µg/mL (≈ 79.7 µM) in the data set with S. pneumoniae (setting [12]); 32 µg/mL (≈ 79.7 µM) in the data set with S. pneumoniae (setting [13]); 32 µg/mL (≈ 79.7 µM) with S. pneumoniae (Serum, Control (no BPI)).

B1: BPI: bactericidal/permeability-increasing protein isolated from granules of mammalian polymorphonuclear leukocytes (protein, UniProt P17213 32-487, looked up)
Bactericidal …: VNPGVVVRISQKGLDYASQQGTAALQKELKRIKIPDYSDSFKIKHLGKGHYSFYSMDIREFQLPSSQISMVPNVGLKFSISNANIKISGKWKAQKRFLKMSGNFDLSIEGMSISADLKLGSNPTSGKPTITCSSCSSHINSVHVHISKSKVGWLIQLFHKKIESALRNKMNSQVCEKVTNSVSSELQPYFQTLPVMTKIDSVAGINYGLVAPPATTAETLDVQMKGEFYSENHHNPPPFAPPVMEFPAAHDRMVYLGLSDYFFNTAGLVYQEAGVLKMTLRDDMIPKESKFRLTTKFFGTFLPEVAKKFPNMKIQIHVSASTPPHLSVQPTGLTFYPAVDVQAFAVLPNSSLASLFLIGMHTTGSMEVSAESNRLVGELKLDRLLLELKHSNIGPFPVELLQDIMNYIVPILVLPRVNEKLQKGFPLPTPARVQLYNVVLQPHQNFLLFGADVVYK
On to B1, for which the “concentrations at which BPI exhibits anti-bacterial activity (as low as)” value in the data set on gram-negative bacteria was 10^−8 to 10^−9 M. For the same molecule, the “toxic effect on fungi” value in data set [1] is listed as “no toxic effect”. In addition, in data set [2], the “toxic effect on gram-positive organisms” value is reported as “no toxic effect”. Moreover, in data set [3], the “toxicity to higher eukaryotic cells” value is recorded as “non-toxic”.

(Values after patent US6849598B1, “Therapeutic compositions comprising bactericidal/permeability-increasing (BPI) protein products” (XOMA, priority 1995, dated 2005).)
